# Laboratory results taken from ChEMBL document CHEMBL1201862, “PubChem BioAssay data set” (2004).
#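 1) Cells in 96-well plates. 2) Compound, 48 h, 5 concentrations. 3) Linear interpolation between surrounding doses. 4) Unreached endpoint = highest concentration. At the GI50, growth is halved.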 Calls of active or inactive are those of the source. Cut-off read from the data, not from the text of the source: active = GI50 up to about 1.1 µM and inactive = higher. Non-standard residues stand in square brackets, D forms with d. Residues, ends and D or L forms follow the SMILES beside them. *: point of attachment. NMeF = CN[CH](Cc1ccccc1)C(=O)O; NMeV = CN[CH](C(=O)O)C(C)C; Boc = CC(C)(C)OC(=O)*
# How the values were obtained:
# Assay in all cases: NCI anticancer screen, dose series, 48 h
# [1] = tested on: HOP-92
# [2] = tested on: SN12C
# [3] = tested on: HCT-116
# [4] = tested on: HOP-62
# [5] = tested on: SF-539
# [6] = tested on: 786-0
# [7] = tested on: OVCAR-4
# [8] = tested on: RPMI-8226
# [9] = tested on: HT-29
# [10] = tested on: NCI-H522
# [11] = tested on: SK-OV-3
# [12] = tested on: A549
# [13] = tested on: LOX IMVI
# [14] = tested on: OVCAR-5
# [15] = tested on: RXF 393
# [16] = tested on: SK-MEL-28
# [17] = tested on: SR
# [18] = tested on: CCRF-CEM
SMILES,GI50 [1],GI50 [2],GI50 [3],GI50 [4],GI50 [5],GI50 [6],GI50 [7],GI50 [8],GI50 [9],GI50 [10],GI50 [11],GI50 [12],GI50 [13],GI50 [14],GI50 [15],GI50 [16],GI50 [17],GI50 [18]
O=C(CC(=O)C1CCOC1=O)C(=O)Nc1cccc(Cl)c1 (stereo not drawn),> 100 µM (inactive),> 100 µM (inactive),> 100 µM (inactive),> 100 µM (inactive),> 100 µM (inactive),> 100 µM (inactive),> 100 µM (inactive),> 100 µM (inactive),> 100 µM (inactive),> 100 µM (inactive),> 100 µM (inactive),> 100 µM (inactive),> 100 µM (inactive),> 100 µM (inactive),> 100 µM (inactive),> 100 µM (inactive),,
CCCCCCCCC/C=C1\CCC(CN(C)C)C1=O (stereo not drawn),2.13 µM (inactive),2.08 µM (inactive),1.8 µM (inactive),2.08 µM (inactive),1.79 µM (inactive),0.281 µM (active),,0.0619 µM (active),1.7 µM (inactive),1.95 µM (inactive),17.2 µM (inactive),4.39 µM (inactive),1.22 µM (inactive),14.8 µM (inactive),,2.03 µM (inactive),2.43 µM (inactive),0.721 µM (active)
CC12CCC3=C(CSC4=C3CSc3ccccc34)C1=CCCC2=O (stereo not drawn),,> 100 µM (inactive),58.3 µM (inactive),20.4 µM (inactive),75.7 µM (inactive),,14.8 µM (inactive),61.2 µM (inactive),34.1 µM (inactive),27.4 µM (inactive),,36.5 µM (inactive),69.8 µM (inactive),37.8 µM (inactive),40.2 µM (inactive),> 100 µM (inactive),65.8 µM (inactive),69.8 µM (inactive)
COC(=O)C1CCc2c(OC)ccc(OC)c2C1=O (stereo not drawn),> 100 µM (inactive),,> 100 µM (inactive),> 100 µM (inactive),> 100 µM (inactive),> 100 µM (inactive),> 100 µM (inactive),> 100 µM (inactive),> 100 µM (inactive),> 100 µM (inactive),> 100 µM (inactive),> 100 µM (inactive),> 100 µM (inactive),> 100 µM (inactive),,> 100 µM (inactive),,> 100 µM (inactive)
[N-]=[N+]=Nc1cc(=O)oc2ccccc12,,> 100 µM (inactive),> 100 µM (inactive),> 100 µM (inactive),> 100 µM (inactive),> 100 µM (inactive),> 100 µM (inactive),> 100 µM (inactive),> 100 µM (inactive),> 100 µM (inactive),> 100 µM (inactive),> 100 µM (inactive),> 100 µM (inactive),> 100 µM (inactive),> 100 µM (inactive),> 100 µM (inactive),48.9 µM (inactive),> 100 µM (inactive)
[N-]=[N+]=Nc1c(Br)c(=O)[nH]c(=O)n1COCCO,> 100 µM (inactive),> 100 µM (inactive),> 100 µM (inactive),> 100 µM (inactive),> 100 µM (inactive),> 100 µM (inactive),> 100 µM (inactive),,> 100 µM (inactive),32.2 µM (inactive),,> 100 µM (inactive),> 100 µM (inactive),> 100 µM (inactive),> 100 µM (inactive),> 100 µM (inactive),> 100 µM (inactive),63.4 µM (inactive)
O=C(O)c1ccc(NC(=O)C2C(=O)C(=O)N(c3ccc(C(=O)O)cc3)C2=O)cc1 (stereo not drawn),> 100 µM (inactive),> 100 µM (inactive),> 100 µM (inactive),> 100 µM (inactive),> 100 µM (inactive),> 100 µM (inactive),> 100 µM (inactive),> 100 µM (inactive),> 100 µM (inactive),> 100 µM (inactive),> 100 µM (inactive),> 100 µM (inactive),> 100 µM (inactive),> 100 µM (inactive),> 100 µM (inactive),> 100 µM (inactive),,> 100 µM (inactive)
COc1ccc(C2C(Cl)C(=O)N2NC(=O)c2ccccc2O)cc1OC (stereo not drawn),,> 100 µM (inactive),> 100 µM (inactive),,> 100 µM (inactive),> 100 µM (inactive),75.9 µM (inactive),,65.8 µM (inactive),32.2 µM (inactive),90.2 µM (inactive),> 100 µM (inactive),36.5 µM (inactive),,> 100 µM (inactive),> 100 µM (inactive),,31.6 µM (inactive)
COC(=O)c1ccccc1NC(=O)C(=O)Cc1nc2c3c(ccc2nc1O)C(=O)c1ccccc1C3=O,15.8 µM (inactive),29.6 µM (inactive),9.29 µM (inactive),13.9 µM (inactive),23.9 µM (inactive),16.2 µM (inactive),9.06 µM (inactive),8.2 µM (inactive),35.9 µM (inactive),9.14 µM (inactive),10.1 µM (inactive),14 µM (inactive),12.5 µM (inactive),79.4 µM (inactive),2.08 µM (inactive),15.7 µM (inactive),,3.75 µM (inactive)
COc1ccc2nc3cc(Cl)ccc3c(Sc3ccc(NC(C)=O)cc3)c2c1,,14.9 µM (inactive),17.9 µM (inactive),> 41.7 µM (inactive),12.3 µM (inactive),8.15 µM (inactive),> 24.4 µM (inactive),26.3 µM (inactive),92.3 µM (inactive),2.79 µM (inactive),> 22.4 µM (inactive),> 53.2 µM (inactive),5.73 µM (inactive),> 29 µM (inactive),12.6 µM (inactive),12.8 µM (inactive),3.66 µM (inactive),9.18 µM (inactive)
CN(C)c1ccc(/C=C/C=C\c2cc(/C=C/C=C/c3ccc(N(C)C)cc3)[s+]c3ccccc23)cc1.[O-][Cl+3]([O-])([O-])[O-],,> 100 µM (inactive),78.5 µM (inactive),> 100 µM (inactive),> 100 µM (inactive),90.6 µM (inactive),10 µM (inactive),55.3 µM (inactive),> 100 µM (inactive),10 µM (inactive),43.7 µM (inactive),> 100 µM (inactive),20.1 µM (inactive),> 100 µM (inactive),13.1 µM (inactive),14.2 µM (inactive),,
NC(CCC(=O)NC(CSSCCCCS(=O)O)C(=O)NCC(=O)O)C(=O)O (stereo not drawn),,> 100 µM (inactive),> 100 µM (inactive),> 100 µM (inactive),> 100 µM (inactive),> 100 µM (inactive),> 100 µM (inactive),,> 100 µM (inactive),> 100 µM (inactive),> 100 µM (inactive),> 100 µM (inactive),> 100 µM (inactive),> 100 µM (inactive),> 100 µM (inactive),> 100 µM (inactive),,> 100 µM (inactive)
CC(C)C(NC(=O)OC(C)(C)C)C(=O)N(C)C(Cc1ccccc1)C(=O)N(C)C(C(=O)N(C)C(C(=O)O)C(C)C)C(C)C (stereo not drawn) (Boc-V[NMeF][NMeV][NMeV]-OH; configuration not given here),,> 100 µM (inactive),> 100 µM (inactive),> 100 µM (inactive),> 100 µM (inactive),> 100 µM (inactive),,> 100 µM (inactive),> 100 µM (inactive),> 100 µM (inactive),,> 100 µM (inactive),> 100 µM (inactive),,> 100 µM (inactive),> 100 µM (inactive),> 100 µM (inactive),> 100 µM (inactive)
CN(C)CCCNC(=O)c1cccc2ccccc12,,> 100 µM (inactive),> 100 µM (inactive),,> 100 µM (inactive),,> 100 µM (inactive),,> 100 µM (inactive),> 100 µM (inactive),> 100 µM (inactive),> 100 µM (inactive),> 100 µM (inactive),,> 100 µM (inactive),> 100 µM (inactive),,> 100 µM (inactive)
CCOC(=O)c1ccc(N2C(=O)Cc3ccccc3C2=O)cc1,,> 100 µM (inactive),> 100 µM (inactive),,> 100 µM (inactive),> 100 µM (inactive),,> 100 µM (inactive),> 100 µM (inactive),,> 100 µM (inactive),> 100 µM (inactive),,> 100 µM (inactive),> 100 µM (inactive),> 100 µM (inactive),> 100 µM (inactive),
O=C1C2=C(CCC2)Nc2cccc3ncn1c23,,55.1 µM (inactive),34 µM (inactive),,> 100 µM (inactive),> 100 µM (inactive),,> 100 µM (inactive),,69.7 µM (inactive),73.5 µM (inactive),33.7 µM (inactive),24.5 µM (inactive),15.9 µM (inactive),96.4 µM (inactive),61.9 µM (inactive),> 100 µM (inactive),> 100 µM (inactive)
COc1ccccc1NC(=O)C1=C(C)NC(C)=C(C(=O)Nc2ccccc2OC)C1c1ccccc1OC,> 100 µM (inactive),> 100 µM (inactive),38.9 µM (inactive),> 100 µM (inactive),> 100 µM (inactive),> 100 µM (inactive),69 µM (inactive),75.9 µM (inactive),> 100 µM (inactive),> 100 µM (inactive),> 100 µM (inactive),> 100 µM (inactive),> 100 µM (inactive),> 100 µM (inactive),,> 100 µM (inactive),83.2 µM (inactive),> 100 µM (inactive)
O=C(CC(=O)N1N=C(c2ccccc2)C(/N=N/c2ccc(Cl)cc2)C1=O)Nc1ccccc1Cl (stereo not drawn),,92 µM (inactive),23.6 µM (inactive),20.1 µM (inactive),24.4 µM (inactive),12.2 µM (inactive),16 µM (inactive),27.6 µM (inactive),37.4 µM (inactive),30.3 µM (inactive),18.8 µM (inactive),13.2 µM (inactive),26.2 µM (inactive),> 100 µM (inactive),,20.6 µM (inactive),24.7 µM (inactive),
